Tests used:
[1] = molecular target: human-recombinant protein kinase N (Homo sapiens, UniProt Q16512); test: Measurement of inhibition activity of protein kinase N (PKN); format: biochemical
Description: The PKN reaction was carried out in 50 µl reaction buffer (20mM Tris HCI pH 7.5, 8mM MgCl2) containing (i) 40µM PKCα peptide ([…]) as a substrate of PKN, (ii) 1 µM GTPγS form GST-RhoA (prepared by the method of Method in ENZYMOLOGY Vol. 256 Small GTPases and Their Regulators Part B Rho Family P.3-10), (iii) 50µM, 20µM, 10µM and 5µM (as the final concentration of the reaction mixture) of ATP and 0.5µl of [γ-^32P] ATP (1.11 TBg/mmol, 74MBg/ml; supplied by NEN™ Life Science Product, Inc.), and (iv) a purified human-recombinant protein kinase N (prepared by using a Baculovirus expression system), in the presence of or in the absence of 1 µM of hexahydro-1-(5-isoquinolinesulfonyl)-1H-1,4-diazepine hydrochloride (Fasudil Hydrochloride). 30µl of the reaction mixture was spotted onto Whatman paper P81 (supplied by Whatman International Ltd.) after the incubation for 10 minutes at 30°C. After the spotting, the spotted Whatman paper was washed with 75mM phosphoric acid 5 times. Then incorporation of ^32P into the PKCα peptide on the washed paper was assessed by scintillation counting. Based on the assessment by scintillation counting, Km value was measured by Lineweaver-Burk plot (method), then K, value was calculated.

[2] = tested on: Rat MM-1 Ascites Hepatoma cells bearing V14 Rho A; test: Peritoneal invasion of Rat MM-1 ascites hepatoma cells bearing V14 Rho A (carcinomatous peritonitis model); format: in vivo, male Donryu rats; details: after 11 days, 5 rats
Description: MMI ascites hepatoma cells (2x10^7) stably expressing Val 14-RhoA were injected into the peritoneal cavities of male Donryu rats (body weight 100g) (to obtain a model of rat having MM-1 ascites Hepatoma cells bearing V14 Rho A). Fasudil was intravenously delivered at the indicated dose (0, 0.1 mg/Kg, 1 mg/Kg, and 10 mg/Kg) 3 times per day. After 11 days, the animals were sacrificed and (i) tumor nodules and tumor cell dissemination on peritoneum were assessed (This test was conducted by the method which is similar to one described in Nature Medicine Volume 5, Number 2, February 1999, p.223-225 and was conducted with 5 rats at each dose.). In addition, hyperemia of the surface in the peritoneum was also observed.

ROCK = ROCK (Homo sapiens, UniProt Q13464); test: ROCK inhibition (from Table 1 of Nature vol. 389, p. 991); format: biochemical; details: based on the Ki values of Table 1 of Nature vol. 389, p. 991
ROCK, sequence (Q13464 whole entry): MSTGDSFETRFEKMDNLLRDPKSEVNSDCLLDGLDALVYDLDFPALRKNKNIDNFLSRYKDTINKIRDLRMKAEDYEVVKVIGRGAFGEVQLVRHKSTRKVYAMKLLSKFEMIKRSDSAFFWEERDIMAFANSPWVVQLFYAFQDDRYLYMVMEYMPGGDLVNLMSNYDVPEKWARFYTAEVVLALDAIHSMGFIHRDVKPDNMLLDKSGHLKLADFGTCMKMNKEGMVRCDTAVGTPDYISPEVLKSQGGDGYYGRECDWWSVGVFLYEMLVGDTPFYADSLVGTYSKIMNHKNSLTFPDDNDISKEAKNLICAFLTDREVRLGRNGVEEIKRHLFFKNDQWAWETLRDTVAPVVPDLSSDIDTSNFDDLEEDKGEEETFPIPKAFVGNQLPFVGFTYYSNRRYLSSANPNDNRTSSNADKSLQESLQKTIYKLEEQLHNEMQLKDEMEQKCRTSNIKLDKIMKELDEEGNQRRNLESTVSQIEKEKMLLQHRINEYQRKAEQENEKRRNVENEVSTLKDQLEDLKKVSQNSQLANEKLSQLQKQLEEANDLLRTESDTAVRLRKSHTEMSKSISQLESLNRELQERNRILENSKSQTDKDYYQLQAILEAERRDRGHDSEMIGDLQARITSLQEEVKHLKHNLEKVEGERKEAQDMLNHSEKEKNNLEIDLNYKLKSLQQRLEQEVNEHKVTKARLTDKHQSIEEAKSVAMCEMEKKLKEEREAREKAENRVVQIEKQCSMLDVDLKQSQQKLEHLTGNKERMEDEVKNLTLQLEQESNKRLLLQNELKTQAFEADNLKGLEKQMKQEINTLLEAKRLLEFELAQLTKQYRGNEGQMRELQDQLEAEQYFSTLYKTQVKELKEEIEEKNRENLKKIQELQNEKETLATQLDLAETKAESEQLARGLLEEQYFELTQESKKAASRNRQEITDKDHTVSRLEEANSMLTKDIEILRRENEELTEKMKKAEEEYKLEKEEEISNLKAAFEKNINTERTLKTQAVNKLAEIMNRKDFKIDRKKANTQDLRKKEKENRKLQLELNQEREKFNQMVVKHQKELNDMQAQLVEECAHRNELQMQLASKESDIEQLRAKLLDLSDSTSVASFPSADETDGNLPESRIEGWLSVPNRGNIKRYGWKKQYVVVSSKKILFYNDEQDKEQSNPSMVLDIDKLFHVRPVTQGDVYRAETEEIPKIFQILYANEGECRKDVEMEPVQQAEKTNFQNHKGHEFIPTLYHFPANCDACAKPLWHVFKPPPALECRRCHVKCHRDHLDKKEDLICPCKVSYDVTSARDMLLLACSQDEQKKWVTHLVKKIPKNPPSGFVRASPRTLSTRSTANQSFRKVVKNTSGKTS
From the text: According to Table 1 of Nature vol. […] 389, p. 991/30 October 1997 based on the Ki values.

[3] = 0.1 mg/Kg intravenously 3 times per day
[4] = 1 mg/Kg intravenously 3 times per day
[5] = 10 mg/Kg intravenously 3 times per day

human-recombinant protein kinase N, sequence (Q16512 whole entry): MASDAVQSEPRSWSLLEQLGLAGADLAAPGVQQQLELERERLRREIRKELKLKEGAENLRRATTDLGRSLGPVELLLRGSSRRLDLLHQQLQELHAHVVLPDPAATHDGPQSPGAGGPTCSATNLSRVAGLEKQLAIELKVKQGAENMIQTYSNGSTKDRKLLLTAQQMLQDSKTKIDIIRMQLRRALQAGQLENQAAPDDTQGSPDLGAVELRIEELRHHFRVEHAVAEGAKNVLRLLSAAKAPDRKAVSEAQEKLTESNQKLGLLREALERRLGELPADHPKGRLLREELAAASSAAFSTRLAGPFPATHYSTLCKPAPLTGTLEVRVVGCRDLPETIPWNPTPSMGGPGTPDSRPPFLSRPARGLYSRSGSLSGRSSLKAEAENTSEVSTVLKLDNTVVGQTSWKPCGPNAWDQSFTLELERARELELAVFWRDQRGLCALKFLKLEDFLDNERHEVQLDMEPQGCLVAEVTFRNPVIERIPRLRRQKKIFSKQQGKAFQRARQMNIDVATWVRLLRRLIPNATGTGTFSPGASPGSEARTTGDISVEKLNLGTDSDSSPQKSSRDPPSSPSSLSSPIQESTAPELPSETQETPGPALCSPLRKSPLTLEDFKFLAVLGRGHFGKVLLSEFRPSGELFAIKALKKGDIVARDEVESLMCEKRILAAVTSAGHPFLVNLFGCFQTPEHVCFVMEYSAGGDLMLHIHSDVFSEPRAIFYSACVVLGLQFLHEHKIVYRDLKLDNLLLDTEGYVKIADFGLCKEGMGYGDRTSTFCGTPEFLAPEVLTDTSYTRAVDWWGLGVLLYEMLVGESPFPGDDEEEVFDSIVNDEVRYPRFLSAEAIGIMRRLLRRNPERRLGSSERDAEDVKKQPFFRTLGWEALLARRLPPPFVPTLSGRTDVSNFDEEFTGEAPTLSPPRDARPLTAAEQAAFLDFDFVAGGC
human-recombinant protein kinase N, sequence (P61586 whole entry partner): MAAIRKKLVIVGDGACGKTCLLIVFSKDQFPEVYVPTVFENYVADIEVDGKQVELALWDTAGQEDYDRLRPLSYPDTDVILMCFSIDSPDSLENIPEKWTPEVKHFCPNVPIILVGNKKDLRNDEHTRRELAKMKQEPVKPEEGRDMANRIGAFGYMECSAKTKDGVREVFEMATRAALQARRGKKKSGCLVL

Cl.O=S(=O)(c1cccc2cnccc12)N1CCCNCC1 [Fasudil Hydrochloride, hexahydro-1-(5-isoquinolinesulfonyl)-1H-1,4-diazepine hydrochloride]
Ki ([1]; 1 µM Fasudil Hydrochloride, ATP 50, 20, 10 and 5 µM, Lineweaver-Burk plot, 10 minutes at 30°C): 922 nM
PKN inhibitory activity relative to the inhibitory activity of protein kinase C ([1]; based on the Ki values, protein kinase C Ki from Table 1 of Nature vol. 389, p. 991): ten times higher
Hyperemia of the surface in the peritoneum [2, 3]: + (25-50% of surface in the peritoneum shows hyperemia)
Total number of tumor nodules on peritoneum [2, 3]: 22
Hyperemia of the surface in the peritoneum [2, 4]: ± (less than 25% of surface in the peritoneum shows hyperemia)
Total number of tumor nodules on peritoneum [2, 4]: 11
Hyperemia of the surface in the peritoneum [2, 5]: ± (less than 25% of surface in the peritoneum shows hyperemia)
Total number of tumor nodules on peritoneum [2, 5]: 0
ROCK inhibitory activity relative to the inhibitory activity of protein kinase C (ROCK): 28 times

Source: patent publication EP1064944A1, “Protein kinase N inhibitor comprising Fasudil” (priority 1999, dated 2001)
